Measured values: US9403813B2, “Azetidine amide derivatives as orexin receptor antagonists” (ACTELION PHARMACEUTICALS LTD, priority 2013, dated 2016)

Legend:
human orexin-1 receptor = human orexin-1 receptor (Homo sapiens (Human), UniProt O43613); experiment: Intracellular calcium measurements (FLIPR), antagonism of orexin-A response; type: cell-based; conditions: CHO cells expressing human orexin-1 receptor, 3 nM orexin-A, geometric mean if determined several times, read-out: IC50 OX1
Procedure: (§1) Antagonistic activities on both orexin receptors have been measured for each example compound using the following procedure:
(§2) In Vitro Assay: Intracellular Calcium Measurements:
(§3) Chinese hamster ovary (CHO) cells expressing the human orexin-1 receptor and the human orexin-2 receptor, respectively, are grown in culture medium (Ham F-12 with L-Glutamine) containing 300 μg/mL G418, 100 U/mL penicillin, 100 μg/mL streptomycin and 10% heat inactivated fetal calf serum (FCS). The cells are seeded at 20,000 cells/well into 384-well black clear bottom sterile plates (Greiner). The seeded plates are incubated overnight at 37° C. in 5% CO2. Human orexin-A as an agonist is prepared as 1 mM stock solution in MeOH:water (1:1), diluted in HBSS containing 0.1% bovine serum albumin (BSA), NaHCO3: 0.375 g/L and 20 mM HEPES for use in the assay at a final concentration of 3 nM.
(§4) Antagonists are prepared as 10 mM stock solution in DMSO, then diluted in 384-well plates using DMSO followed by a transfer of the dilutions into in HBSS containing 0.1% bovine serum albumin (BSA), NaHCO3: 0.375 g/L and 20 mM HEPES. On the day of the assay, 50 μL of staining buffer (HBSS containing 1% FCS, 20 mM HEPES, NaHCO3: 0.375 g/L, 5 mM probenecid (Sigma) and 3 μM of the fluorescent calcium indicator fluo-4 AM (1 mM stock solution in DMSO, containing 10% pluronic) is added to each well. The 384-well cell-plates are incubated for 50 min at 37° C. in 5% CO2 followed by equilibration at rt for 30 min before measurement.
(§5) Within the Fluorescent Imaging Plate Reader (FLIPR Tetra, Molecular Devices), antagonists are added to the plate in a volume of 10 μL/well, incubated for 120 min and finally 10 μL/well of agonist is added. Fluorescence is measured for each well at 1 second intervals, and the height of each fluorescence peak is compared to the height of the fluorescence peak induced by 3 nM orexin-A with vehicle in place of antagonist. The IC50 value (the concentration of compound needed to inhibit 50% of the agonistic response) is determined and may be normalized using the obtained IC50 value of an on-plate reference compound. Optimized conditions were achieved by adjustment of pipetting speed and cell splitting regime. The calculated IC50 values may fluctuate depending on the daily cellular assay performance. Fluctuations of this kind are known to those skilled in the art. In the case where IC50 values have been determined several times for the same compound, the geometric mean has been given.

human orexin-2 receptor = human orexin-2 receptor (Homo sapiens (Human), UniProt O43614); experiment: as above; type: cell-based; conditions: CHO cells expressing human orexin-2 receptor, 3 nM orexin-A, geometric mean if determined several times, read-out: IC50 OX2
Procedure: as §1, §2, §3, §4, §5

Sequence of human orexin-2 receptor (O43614 whole entry): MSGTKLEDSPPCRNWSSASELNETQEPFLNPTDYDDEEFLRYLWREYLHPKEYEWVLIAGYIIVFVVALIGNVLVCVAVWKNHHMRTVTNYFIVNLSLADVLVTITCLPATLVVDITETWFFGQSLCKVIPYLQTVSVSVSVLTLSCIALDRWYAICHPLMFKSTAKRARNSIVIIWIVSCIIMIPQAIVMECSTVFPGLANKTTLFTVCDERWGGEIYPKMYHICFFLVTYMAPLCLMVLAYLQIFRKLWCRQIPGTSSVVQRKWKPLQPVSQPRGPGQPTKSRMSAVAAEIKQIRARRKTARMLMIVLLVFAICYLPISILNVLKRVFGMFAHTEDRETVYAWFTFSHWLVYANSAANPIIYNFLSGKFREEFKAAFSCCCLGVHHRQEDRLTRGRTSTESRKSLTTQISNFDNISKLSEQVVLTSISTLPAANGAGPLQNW
Sequence of human orexin-1 receptor (O43613 whole entry): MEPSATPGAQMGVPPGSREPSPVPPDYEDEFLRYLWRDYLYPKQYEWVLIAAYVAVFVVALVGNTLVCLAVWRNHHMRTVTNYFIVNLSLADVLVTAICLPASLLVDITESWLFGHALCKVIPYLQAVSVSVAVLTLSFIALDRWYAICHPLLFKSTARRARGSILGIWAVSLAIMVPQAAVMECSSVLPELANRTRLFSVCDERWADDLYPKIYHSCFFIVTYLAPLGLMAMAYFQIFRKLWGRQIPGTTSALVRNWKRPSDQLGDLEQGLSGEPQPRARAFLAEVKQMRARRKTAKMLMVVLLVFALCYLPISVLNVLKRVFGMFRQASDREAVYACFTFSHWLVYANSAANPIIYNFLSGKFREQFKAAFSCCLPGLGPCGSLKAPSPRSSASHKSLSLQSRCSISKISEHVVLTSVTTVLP

IC50 (human orexin-1 receptor) | IC50 (human orexin-2 receptor) | Compound
171 nM | 10 nM | Cc1cc(-n2nccn2)c(C(=O)N2CC[C@H]2c2nc(-c3cccc(Cl)c3C)no2)cc1Cl [Example 82, {(S)-2-[3-(3-Chloro-2-methyl-phenyl)-[1,2,4]oxadiazol-5-yl]-azetidin-1-yl}-(5-chloro-4-methyl-2-[1,2,3]triazol-2-yl-phenyl)-methanone]
2320 nM | 280 nM | Cc1ccc(-n2nccn2)c(C(=O)N2CC[C@H]2c2nc(-c3cc(F)cc(F)c3)no2)c1 [Example 11, {(S)-2-[3-(3,5-Difluoro-phenyl)-[1,2,4]oxadiazol-5-yl]-azetidin-1-yl}-(5-methyl-2-[1,2,3]triazol-2-yl-phenyl)-methanone]
1160 nM | 40 nM | Cc1cccc(-c2noc([C@@H]3CCN3C(=O)c3cc(C)ccc3-n3nccn3)n2)c1 [Example 13, (5-Methyl-2-[1,2,3]triazol-2-yl-phenyl)-[(S)-2-(3-m-tolyl-[1,2,4]oxadiazol-5-yl)-azetidin-1-yl]-methanone]
257 nM | 10 nM | CCOc1ncccc1-c1nc([C@@H]2CCN2C(=O)c2ccc(C)cc2-n2nccn2)no1 [Example 97, {(S)-2-[5-(2-Ethoxy-pyridin-3-yl)-[1,2,4]oxadiazol-3-yl]-azetidin-1-yl}-(4-methyl-2-[1,2,3]triazol-2-yl-phenyl)-methanone]
173 nM | 4 nM | Cc1cc(C(=O)N2CC[C@H]2c2nc(-c3cccc(F)c3C)no2)c(-n2nccn2)cc1C [Example 21, (4,5-Dimethyl-2-[1,2,3]triazol-2-yl-phenyl)-{(S)-2-[3-(3-fluoro-2-methyl-phenyl)-[1,2,4]oxadiazol-5-yl]-azetidin-1-yl}-methanone]
1300 nM | 38 nM | COc1ccccc1-c1noc([C@@H]2CCN2C(=O)c2cc(C)ccc2-n2nccn2)n1 [Example 4, {(S)-2-[3-(2-Methoxy-phenyl)-[1,2,4]oxadiazol-5-yl]-azetidin-1-yl}-(5-methyl-2-[1,2,3]triazol-2-yl-phenyl)-methanone]
2110 nM | 180 nM | Cc1ccc(-c2noc([C@@H]3CCN3C(=O)c3cc(C)ccc3-n3nccn3)n2)cc1 [Example 3, (5-Methyl-2-[1,2,3]triazol-2-yl-phenyl)-[(S)-2-(3-p-tolyl-[1,2,4]oxadiazol-5-yl)-azetidin-1-yl]-methanone]
634 nM | 33 nM | COc1c(F)cccc1-c1noc([C@@H]2CCN2C(=O)c2ccc(C)cc2-n2nccn2)n1 [Example 20, {(S)-2-[3-(3-Fluoro-2-methoxy-phenyl)-[1,2,4]oxadiazol-5-yl]-azetidin-1-yl}-(4-methyl-2-[1,2,3]triazol-2-yl-phenyl)-methanone]
338 nM | 17 nM | Cc1ccc(C(=O)N2CC[C@H]2c2nc(-c3ccccc3OC(F)(F)F)no2)c(-n2nccn2)c1 [Example 79, (4-Methyl-2-[1,2,3]triazol-2-yl-phenyl)-{(S)-2-[3-(2-trifluoromethoxy-phenyl)-[1,2,4]oxadiazol-5-yl]-azetidin-1-yl}-methanone]
819 nM | 100 nM | CCOc1ncccc1-c1noc([C@@H]2CCN2C(=O)c2ccc(C)cc2-n2nccn2)n1 [Example 32, {(S)-2-[3-(2-Ethoxy-pyridin-3-yl)-[1,2,4]oxadiazol-5-yl]-azetidin-1-yl}-(4-methyl-2-[1,2,3]triazol-2-yl-phenyl)-methanone]

The remaining lines, values behind:

Compound | IC50 (human orexin-1 receptor) | IC50 (human orexin-2 receptor)
Cc1cccc(-c2sc(C)nc2C(=O)N2CC[C@H]2c2nc(-c3cccc(Cl)c3C)no2)c1 [Example 56, {(S)-2-[3-(3-Chloro-2-methyl-phenyl)-[1,2,4]oxadiazol-5-yl]-azetidin-1-yl}-(2-methyl-5-m-tolyl-thiazol-4-yl)-methanone] | 436 nM | 280 nM
COc1cc(C(=O)N2CC[C@H]2c2nnc(-c3ccccc3OC(F)(F)F)[nH]2)c(-n2nccn2)cc1C [Example 129, (5-Methoxy-4-methyl-2-[1,2,3]triazol-2-yl-phenyl)-{(S)-2-[5-(2-trifluoromethoxy-phenyl)-4H-[1,2,4]triazol-3-yl]-azetidin-1-yl}-methanone] | 454 nM | 6 nM
Cc1cccc(-c2ocnc2C(=O)N2CC[C@H]2c2nc(-c3ccccc3OC(F)(F)F)no2)c1 [Example 49, (5-m-Tolyl-oxazol-4-yl)-{(S)-2-[3-(2-trifluoromethoxy-phenyl)-[1,2,4]oxadiazol-5-yl]-azetidin-1-yl}-methanone] | 223 nM | 305 nM
Cc1cccc(-c2scnc2C(=O)N2CC[C@H]2c2nc(-c3ccccc3OC(F)(F)F)no2)c1 [Example 51, (5-m-Tolyl-thiazol-4-yl)-{(S)-2-[3-(2-trifluoromethoxy-phenyl)-[1,2,4]oxadiazol-5-yl]-azetidin-1-yl}-methanone] | 276 nM | 342 nM
Cc1ccc(-c2sc(C)nc2C(=O)N2CC[C@H]2c2nc(-c3ccccc3OC(F)(F)F)no2)cc1 [Example 44, (2-Methyl-5-p-tolyl-thiazol-4-yl)-{(S)-2-[3-(2-trifluoromethoxy-phenyl)-[1,2,4]oxadiazol-5-yl]-azetidin-1-yl}-methanone] | 282 nM | 73 nM
O=C(c1ncsc1-c1ccccc1)N1CC[C@H]1c1nc(-c2ccccc2OC(F)(F)F)no1 [Example 42, (5-Phenyl-thiazol-4-yl)-{(S)-2-[3-(2-trifluoromethoxy-phenyl)-[1,2,4]oxadiazol-5-yl]-azetidin-1-yl}-methanone] | 400 nM | 266 nM
Cc1cc(-n2nccn2)c(C(=O)N2CC[C@H]2c2noc(-c3cccc(Cl)c3C)n2)cc1Cl [Example 105, {(S)-2-[5-(3-Chloro-2-methyl-phenyl)-[1,2,4]oxadiazol-3-yl]-azetidin-1-yl}-(5-chloro-4-methyl-2-[1,2,3]triazol-2-yl-phenyl)-methanone] | 122 nM | 5 nM
Cc1onc(-c2ccccc2Cl)c1C(=O)N1CC[C@H]1c1nc(-c2cccc(Cl)c2C)no1 [Example 72, {(S)-2-[3-(3-Chloro-2-methyl-phenyl)-[1,2,4]oxadiazol-5-yl]-azetidin-1-yl}-[3-(2-chloro-phenyl)-5-methyl-isoxazol-4-yl]-methanone] | 1400 nM | 666 nM
Cc1cccc(-c2ocnc2C(=O)N2CC[C@H]2c2nc(-c3cccc(Cl)c3C)no2)c1 [Example 67, {(S)-2-[3-(3-Chloro-2-methyl-phenyl)-[1,2,4]oxadiazol-5-yl]-azetidin-1-yl}-(5-m-tolyl-oxazol-4-yl)-methanone] | 437 nM | 631 nM
CCOc1ncccc1-c1nnc([C@@H]2CCN2C(=O)c2ccc(C)cc2-n2nccn2)[nH]1 [Example 123, {(S)-2-[5-(2-Ethoxy-pyridin-3-yl)-4H-[1,2,4]triazol-3-yl]-azetidin-1-yl}-(4-methyl-2-[1,2,3]triazol-2-yl-phenyl)-methanone] | 2040 nM | 316 nM
Cc1nc(C(=O)N2CC[C@H]2c2nc(-c3cccc(Cl)c3C)no2)c(-c2ccccc2)s1 [Example 58, {(S)-2-[3-(3-Chloro-2-methyl-phenyl)-[1,2,4]oxadiazol-5-yl]-azetidin-1-yl}-(2-methyl-5-phenyl-thiazol-4-yl)-methanone] | 1030 nM | 133 nM
O=C(c1ncsc1-c1cccc(Cl)c1)N1CC[C@H]1c1nc(-c2ccccc2OC(F)(F)F)no1 [Example 43, [5-(3-Chloro-phenyl)-thiazol-4-yl]-{(S)-2-[3-(2-trifluoromethoxy-phenyl)-[1,2,4]oxadiazol-5-yl]-azetidin-1-yl}-methanone] | 288 nM | 357 nM
Cc1c(Cl)cccc1-c1noc([C@@H]2CCN2C(=O)c2ncsc2-c2ccccc2)n1 [Example 60, {(S)-2-[3-(3-Chloro-2-methyl-phenyl)-[1,2,4]oxadiazol-5-yl]-azetidin-1-yl}-(5-phenyl-thiazol-4-yl)-methanone] | 1200 nM | 500 nM
COc1cc(C(=O)N2CC[C@H]2c2noc(-c3cccc(F)c3C)n2)c(-n2nccn2)cc1Cl [Example 96, (4-Chloro-5-methoxy-2-[1,2,3]triazol-2-yl-phenyl)-{(S)-2-[5-(3-fluoro-2-methyl-phenyl)-[1,2,4]oxadiazol-3-yl]-azetidin-1-yl}-methanone] | 306 nM | 3 nM
